Measurements reported in patent US8129530B2, “Catecholamine derivatives and prodrugs thereof” (H. Lundbeck A/S, priority 2007, dated 2012).

Columns and labels:
[1] = test system: PD patients; conditions: intravenous (IV); cited from earlier work
[2] = test system: mouse model of severe dopamine depletion; experiment: Superiority model; type: in vivo; conditions: mice
Source text: Both Apomorphine and L-DOPA stimulate D1 and D2-like dopamine receptors.

## CCCc1cc2c(s1)CN[C@@H]1CCc3cc(OC(C)=O)c(OC(C)=O)cc3[C@@H]21 [Adrogolide]
[1]
  antiparkinson efficacy: comparable to that of L-DOPA

## CN1CCc2cccc3c2[C@H]1Cc1ccc(O)c(O)c1-3 [Apomorphine]
[2]
  reversal of motility deficits / restoration of locomotion: able to reverse motility deficits

## N[C@@H](Cc1ccc(O)c(O)c1)C(=O)O [L-DOPA, (levo)-3,4-dihydroxy phenylalanine]
[2]
  reversal of motility deficits / restoration of locomotion: able to reverse motility deficits
